Patent publication US11541065B2, “Compositions and methods for treating brain injury” (UNM RAINFOREST INNOVATIONS, priority 2018, dated 2023)

Key:
ERK MAPK = ERK MAPK phosphorylation in rat cortical neuron cultures (immunoblot); format: cell-based
Description: Primary cortical neuronal cultures were established from embryos obtained from pregnant Sprague Dawley female rats (16-17 day gestation) as previously described (Podder and Paul, 2009, J Neurochem 110:1095-1106; Poddar and Paul, 2013, J Neurochem 124: 558-570). Primary cortical neuronal cultures were also developed from pregnant wildtype or GluN2A-knockout mice (15-16 day gestation) using similar protocols. The cells were maintained in culture for 12-14 days prior to treatment with homocysteine. L-homocysteine (200 mM stock) was prepared by alkali hydrolysis of L-homocysteine thiolactone hydrochloride followed by neutralization with 2N HCL and maintained in 0.02 mM N-Tris(hydroxymethyl)methyl-2-aminoethanesulfonicd acid (TES) buffer pH 7.4 (Poddar et al., 2001, Circulation 103:2717-2723). For receptor stimulation neurons were treated with freshly prepared 50 μM of L-homocysteine in Hank's balanced salt solution (Podder and Paul, 2009, J Neurochem 110:1095-1106; Poddar and Paul, 2013, J Neurochem 124: 558-570) containing 50 μM of glycine (Lipton et al., 1997, Proc Natl Acad Sci USA 94:5923-5928). In a subset of culture plates, pharmacological inhibitors (NVP-AAM007) were added […] prior to homocysteine addition and maintained during homocysteine treatment. Cells were processed for immunoblotting or Hoechst DNA staining.
Equal protein from total cell lysates obtained from rat and mice neuronal cultures were resolved in 7.5% SDS-PAGE, and subjected to immunoblotting procedure as described earlier (Podder and Paul, 2009, J Neurochem 110:1095-1106). Blots were analyzed with antibodies as described in each experiment. All primary antibodies (anti-pERK, anti-ERK) and secondary-horse radish peroxidase conjugated antibody concentrations were used according to recommendations provided by the manufacturer. Signals from immune complexes in the blots were developed using West Pico supersignal chemiluminescence reagents and then captured on X-ray films. Densitometric analysis of the images was performed using the Image J software.
(§1) Embryos obtained from pregnant Sprague Dawley rats (16-17-day gestation) or wild type (WT) and GluN2A KO mice (15-16-day gestation) were used to establish primary cortical neuronal cultures as previously described (Poddar and Paul, 2009, J Neurochem 110:1095-1106; Poddar and Paul, 2013, J Neurochem 124:558-570; Poddar et al., 2017, J Neurochem 142:560-573). Neurons were grown on either (a) 35-mm culture dishes (MatTek Corp., Ashland, Mass.) coated overnight with poly-D-lysine (50 μg/ml) and laminin (10 μg/ml) for Ca^2+ imaging studies, (b) poly-D-lysine-coated 60 mm dishes (Corning BIOCOAT, Corning Inc., Corning, N.Y.) for biochemical studies, or (c) poly-D-lysine-coated 4-well culture slides (Corning BIOCOAT, Corning Inc., Corning, N.Y.) for cell death assay. Neurons were maintained in culture for 12-13 days before experiment. The cells were treated with freshly prepared L-homocysteine (50 μM) in Hank's balanced salt solution containing 50 μM of glycine (Lipton et al., 1997, Proceedings of the National Academy of Sciences of the United States of America 94:5923-5928; Poddar and Paul, 2009, J Neurochem 110:1095-1106; Poddar and Paul, 2013, J Neurochem 124:558-570; Poddar et al., 2017, J Neurochem 142:560-573) for the specified time periods. In a parallel series of experiments, cells were treated with glutamate (50 μM) for the specified time periods. Cells were then processed for live cell imaging, immunoblotting or cell death assay. In some experiments EGTA, DL-AP5, NVP-AAM077, Ro 25-6981 or PD98059 was added 15 minutes prior to L-homocysteine or glutamate treatment.
Rat and mice neuron cultures were harvested in SDS sample buffer (Laemmli, 1970, Nature 227:680-685). […]

[Ca^2+]i = Intracellular Ca^2+ by Fura2 imaging, rat neuronal cultures; format: cell-based; settings: for effect on homocysteine-induced increase in Fura2 fluorescence ratio and [Ca^2+]i: rat neurons, somata and processes, L-homocysteine 50 μM 60 minutes, with EGTA 2 mM, DL-AP5 200 μM, NVP-AAM077 30 nM or Ro 25-6981 1 μM
Method: as §1
[Ca^2+]i in neurons was determined using the fluorescent indicator, Fura2-AM. Briefly, neurons were loaded with Fura2 (10 μM) in phenol red free Hank's balanced salt solution for 30 minutes at 37° C. followed by post-incubation for 20 minutes (Paul, S. and Connor, J. A., 2010, J Neurochem 114:1107-1118). Time lapse live cell imaging was performed following stimulation using a Nikon Ti Eclipse inverted microscope equipped with Tokai Hit stage top incubator maintained at 37° C. and infused with 95:5% air:CO2 mixture. Fields of 5-8 cells were imaged using a 40× oil immersion objective (Nikon). Fluorescence excitations (340 and 380 nm) were provided with Sutter LB-LS/30 Lambda xenon arc lamp and fluorescence emissions (510 nm) were captured using a CCD camera (Teledyne Photometries, Tucson, Ariz.). NIS Elements AR software was used for data acquisition and analysis. Ratiometric data (340/380 nm) from regions of interest were corrected for background and converted into estimates of [Ca^2+]i. as described previously (Paul, S. and Connor, J. A., 2010, J Neurochem 114:1107-1118) using the equation developed earlier (Grynkiewicz et al., 1985, J Biol Chem 260:3440-3450). Maximum and minimum fluorescence ratios were determined from Fura2 loaded cells treated with ionomycin (5 μM) in calcium containing medium (2 mM) or in calcium free media with EGTA (0.5 mM).

[1] = rat cortical neurons, L-homocysteine 50 μM four hours, in presence of NVP-AAM077 (30 nM) or Ro 256981 (1 μM)

N[C@@H](CCS)C(=O)O [L-homocysteine]
ERK MAPK phosphorylation (ERK MAPK; rat cortical neurons, L-homocysteine 50 μM, four hours, alone): significant increase in ERK MAPK phosphorylation
maximum increase in [Ca^2+]i vs control cells ([Ca^2+]i; rat neurons (soma), L-homocysteine 50 μM, by 60 minutes): approximately 7.2 folds

C[C@@H](CN1CCC(Cc2ccccc2)CC1)[C@@H](O)c1ccc(O)cc1 [Ro 25-6981]
effect on homocysteine-induced ERK MAPK phosphorylation (ERK MAPK; [1]): has no effect
effect on homocysteine-induced increase in Fura2 fluorescence ratio and [Ca^2+]i ([Ca^2+]i): fails to attenuate homocysteine-induced [Ca^2+]i increase

C[C@H](NC(c1cccc2[nH]c(=O)c(=O)[nH]c12)P(=O)(O)O)c1ccc(Br)cc1 (stereo partly drawn) [NVP-AAM077, ({[(1S)-1-(4-bromophenyl)ethyl]amino}-(2,3-dioxo-1,4-dihydroquinoxalin-5-yl)methyl)phosphonic acid]
effect on homocysteine-induced ERK MAPK phosphorylation (ERK MAPK; [1]): blocks homocysteine-induced ERK MAPK phosphorylation
effect on homocysteine-induced ERK MAPK phosphorylation (ERK MAPK; rat neurons, L-homocysteine 50 μM for 30 minutes or 60 minutes, with DL-AP5 200 μM or NVP-AAM077 30 nM): attenuates homocysteine-induced ERK MAPK phosphorylation
effect on glutamate-induced transient increase in ERK MAPK phosphorylation (ERK MAPK; rat neurons, glutamate 50 μM five min, with DL-AP5 200 μM or NVP-AAM077 30 nM): fails to ameliorate
effect on homocysteine-induced increase in Fura2 fluorescence ratio and [Ca^2+]i ([Ca^2+]i): attenuates homocysteine-induced increase in Fura2 fluorescence ratio and [Ca^2+]i
